Data set [1] has as its system Mycobacterium tuberculosis strain H37Rv. Briefly: Test 2: MIC determination against M. tuberculosis, resazurin fluorescence. The class given is cell-based. The note with it: Test 2, M. tuberculosis H37Rv; for MIC90: read-out: Bacterial activity MIC90; for IC50: read-out: Bacterial activity pMIC50 (converted).
A short description of data set [2]: Metabolic stability in liver microsomes (intrinsic clearance). Format: in vitro ADME. The note with it: for half-life at 1 µM / microsomal CLint at 1 µM: microsomes; for Metabolic Stability (liver microsome intrinsic clearance) Clearance (mouse, μl/min./mg protein) / Metabolic Stability Half life (mouse, min.): mouse liver microsomes. In short, it runs like this: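 Compound (typically 1 μM) incubated at 37° C with liver microsomes (0.5 mg/ml protein) of selected species, 1 mM NADPH, 1 mM MgCl2, 0.1 M phosphate pH 7.4, sampled 0–60 min. Parent remaining measured by LC-MS/MS; t1/2 from log-linear slope, then Clint in μl/min/mg protein.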

For data set [3], the system named is Salmonella typhimurium Ames II Mixed Strains (TA7001-TA7006) and TA98. Briefly: Genotoxicity assay (AmesIIb mutagenicity test). Note: key: an AmesIIb score of 1 shows no genotoxicity signals. The class given is cell-based. The source says: The aim is to evaluate compounds (and/or their metabolites) for their ability to induce reverse mutations in a gene of histidine-requiring Salmonella typhimurium strains to produce histidine-independent strains of these bacteria, in the absence and in the presence of a mammalian metabolic activation system.
Point mutations were made in the histidine (His) operon in Salmonella typhimurium, rendering the bacteria incapable of producing histidine. These single base substitutions are positioned at strategic points within the His gene, resulting in his-organisms that cannot grow unless histidine is supplied. When a mutagenic event occurs, base substitutions within the His gene then cause the reversion of the his-Ames II™ strains to His.
A chemical's mutagenic potential is assessed by exposing these his-organisms to varying concentrations of chemical and selecting for the reversion event. Medium lacking histidine is used for this selection which allows only those cells that have undergone the his- to His reversion to survive and grow.
The assay may be performed using a kit and instructions from Xenometric. The two strains provided in the Xenometric kit are the Ames II™ Mixed Strains and TA98. The Ames II™ Mixed Strains contains an equimolar mixture of the Ames II™ TA7001-TA7006 strains. Individually, these strains are designed to revert by only one specific base-pair substitution out of six possible changes. Thus, when mixed, all six base substitution mutations can be represented in one culture. This kit also contains TA98 for the detection of frameshift mutations.

[4] abbreviates: Mycobacterium tuberculosis, H37RV.
Setting [5] is: human, pH 7.4, Metabolic Stability Half life (human, min.).
The mark [6] stands for this setting: human, pH 7.4, human liver microsomes, read-out: Metabolic Stability (liver microsome intrinsic clearance) Clearance (human, μl/min./mg protein).
The mark [7] stands for this setting: mouse, pH 7.4, Metabolic Stability Half life (mouse, min.).
[8] abbreviates: mouse, pH 7.4, mouse liver microsomes, read-out: Metabolic Stability (liver microsome intrinsic clearance) Clearance (mouse, μl/min./mg protein).

Converted amounts (≈) assume the structure as drawn. Read-outs that look alike come from different tables or passages of the source.

With `CCc1cnc2nc(CC)c(C(=O)NCc3ccc(-c4cn5c(n4)C[C@H](C(F)(F)F)CC5)cc3)n2c1` [Compound 151], the MIC90 in data set [1] (setting [4]) was determined as 0.054 µM (≈ 0.0268 µg/mL). Moreover, the IC50 in data set [1] (setting [4]) was 18200 pM. For the same compound, the half-life at 1 µM in data set [2] (setting [5]) came to 4.3 min; in data set [2] (setting [7]), 22.2 min. Further, the microsomal CLint at 1 µM in data set [2] (setting [6]) was 326 µL/min/mg; in data set [2] (setting [8]), 62.5 µL/min/mg. Further, the “GeneTox AmesIIb Score” value in data set [3] (Salmonella typhimurium) stood at 1.

In the case of `CCc1cnc2nc(CC)c(C(=O)NCc3ccc(-c4cn5c(n4)C[C@@H](C(F)(F)F)CC5)cc3)n2c1` [Compound 152], the MIC90 in data set [1] (setting [4]) is 0.088 µM (≈ 0.0437 µg/mL). In addition, the IC50 in data set [1] (setting [4]) was 23400 pM. In addition, the half-life at 1 µM in data set [2] (setting [5]) is below 4 min; in data set [2] (setting [7]), 10.7 min. Besides, the microsomal CLint at 1 µM in data set [2] (setting [6]) was above 347 µL/min/mg; in data set [2] (setting [8]), 129 µL/min/mg. Besides, in data set [3] (Salmonella typhimurium), the “GeneTox AmesIIb Score” value was found to be 1.

For `CCc1nc2n(c1C(=O)NCc1ccc(-c3cc4n(n3)CCC(C(F)(F)F)C4)cc1)CCCC2` (centres unmarked) [Compound 179], in data set [1] (setting [4]), the MIC90 is 0.0097 µM (≈ 0.00457 µg/mL) and the IC50 was 3310 pM. For the same compound, the half-life at 1 µM in data set [2] (setting [7]) was 25.9 min. Further, the microsomal CLint at 1 µM in data set [2] (setting [8]) was 53.5 µL/min/mg. In data set [3] (Salmonella typhimurium), the “GeneTox AmesIIb Score” value was determined as 1.

In the case of `CCc1nc2ncccn2c1C(=O)NCc1ccc(-c2nc3n(n2)CC[C@@H](C2CC2)C3)cc1` [Compound 183], in data set [1] (setting [4]), the MIC90 turned out to be 0.48 µM (≈ 0.212 µg/mL) and the IC50 was 646000 pM. This compound showed a half-life at 1 µM in data set [2] (setting [7]) of 137 min. The microsomal CLint at 1 µM in data set [2] (setting [8]) was 10.1 µL/min/mg. For the same compound, the “GeneTox AmesIIb Score” value in data set [3] (Salmonella typhimurium) is recorded as 1.

Consider `CCc1nc2ncccn2c1C(=O)NCc1ccc(-c2nc3n(n2)CC[C@H](C2CC2)C3)cc1` [Compound 184], for which, in data set [1] (setting [4]), the MIC90 stood at 0.43 µM (≈ 0.19 µg/mL) and the IC50 is 166000 pM. This compound also displayed a half-life at 1 µM in data set [2] (setting [7]) above 180 min. For the same compound, the microsomal CLint at 1 µM in data set [2] (setting [8]) was below 7.7 µL/min/mg. The “GeneTox AmesIIb Score” value in data set [3] (Salmonella typhimurium) is recorded as 1.

On to `CCc1nc2ncc(NC(=O)OC(C)(C)C)cn2c1C(=O)NCc1ccc(-c2nc3n(n2)CCC(C(F)(F)F)C3)cc1` (centres unmarked) [Compound 194], for which, in data set [1], the “Bacterial activity pMIC50” value is 7.43 and the MIC90 came out at 0.1 µM (≈ 0.0585 µg/mL). Further, in data set [2] (human liver microsomes), the “Metabolic Stability (liver microsome intrinsic clearance) Clearance (human, μl/min./mg protein)” value is below 7.7 μl/min./mg protein and the “Metabolic Stability Half life (human, min.)” value was above 180 min. Also, in data set [2], the “Metabolic Stability (liver microsome intrinsic clearance) Clearance (mouse, μl/min./mg protein)” value is reported as below 7.7 μl/min./mg protein and the “Metabolic Stability Half life (mouse, min.)” value was above 180 min. In data set [3], the “GeneTox AmesIIb Score” value stood at 1.

In the case of `CCc1nc2nc(C)c(N(Cc3ccc(OC)cc3OC)C(=O)OC(C)(C)C)cn2c1C(=O)NCc1ccc(-c2nc3n(n2)CC[C@H](C(F)(F)F)C3)cc1` [Compound 196], in data set [1], the “Bacterial activity pMIC50” value is given as 7.56 and the MIC90 was 0.067 µM (≈ 0.0502 µg/mL). For the same compound, in data set [2], the “Metabolic Stability (liver microsome intrinsic clearance) Clearance (mouse, μl/min./mg protein)” value is below 7.7 μl/min./mg protein and the “Metabolic Stability Half life (mouse, min.)” value was above 180 min. For the same compound, the “GeneTox AmesIIb Score” value in data set [3] turned out to be 1.

For the origin of these results see patent publication US20250034171A1, “IMIDAZOPYRIDINE AMIDES AND RELATED COMPOUNDS FOR USE IN THE TREATMENT OF BACTERIAL INFECTIONS” (priority 2021, published 2025).
